Measured values: patent US4963544A, “3-pyrrolidinylthio-1-azabicyclo[3.2.0]-hept-2-ene-2-carboxylic acid compounds” (Fujisawa Pharmaceutical Company, Ltd., priority 1988, dated 1990)
≈ marks a conversion by molar mass, not a printed value.

System: E. Coli 31
Assay: in vitro antimicrobial activity, two-fold agar-plate dilution method
Format: cell-based
Settings: Escherichia coli; test strain E. Coli 31; 10^6 viable cells per ml; HI-agar; 37° C., 20 hours; read-out: MIC (minimal inhibitory concentration)
Method: in vitro Antimicrobial Activity was determined by the two-fold agar-plate dilution method as described blow.
One loopful of an overnight culture of a test strain in Trypticase-soy broth (10^6 viable cells per ml) was streaked on heart infusion agar (HI-agar) containing graded concentrations of the test compound, and the minimal inhibitory concentration (MIC) was expressed in terms of μg/ml after incubation at 37° C. for 20 hours.

SMILES: C[C@@H](O)[C@H]1C(=O)N2C(C(=O)O)=C(S[C@@H]3CN[C@H](Cn4ccnc4)C3)[C@H](C)[C@H]12 [Example 2, (4R,5S,6S)-6-((IR)-1-hydroxyethyl) -3-((2S,4S)-2-(imidazol-1-yl)-methylpyrrolidin-4-yl) thio-4-methyl-7-oxo-1-azabicyclo(3.2.0) -hept-2-ene-2-carboxylic acid]
- MIC: 0.05 µg/mL (≈ 0.127 µM)
